From patent US20250127796A1, “METHODS OF TREATING CANCER WITH PI3K INHIBITOR, GDC-0077” (Genentech, Inc., priority 2018, published 2025)
Where two headings read alike, the source gives them in different places.

Columns and labels:
[1] = in combination with letrozole; cited from earlier work
[2] = in combination with fulvestrant; cited from earlier work
[3] = tested on: PIK3CA-mutant breast cancer cell lines; assay: proliferation and apoptosis of PIK3CA-mutant breast cancer cell lines; assay type: cell-based; conditions: nonclinical studies
[4] = tested on: tumor cells bearing mutant PI3K; conditions: mutant versus WT PI3K cells; cited from earlier work
[5] = tested on: Class I PI3K beta, delta, and gamma isoforms; conditions: selectivity of alpha over beta; cited from earlier work
pAKT, pPRAS40, and pS6 = assay: downstream PI3K-pathway markers; assay type: cell-based; conditions: nonclinical studies
[6] = tested on: human breast xenograft models harboring PIK3CA mutations; assay: tumor growth in human breast xenograft models harboring PIK3CA mutations; assay type: in vivo; conditions: nonclinical studies

With `CC(=O)c1c(C)c2cnc(Nc3ccc(N4CCNCC4)cn3)nc2n(C2CCCC2)c1=O` [palbociclib, 6-acetyl-8-cyclopentyl-5-methyl-2-(5-(piperazin-1-yl)pyridin-2-ylamino)pyrido[2,3-d]pyrimidin-7(8H)-one] as the compound, how does the “patients who required ≥1 dose reduction of palbociclib” value [1] read?
Its value is 36%.

And the “patients who required ≥1 dose reduction of palbociclib” value [2]?
The value was 34%.

Which “proliferation and apoptosis of PIK3CA-mutant breast cancer cell lines” value [3] does the source give for `C[C@H](Nc1ccc2c(c1)OCCn1cc(N3C(=O)OC[C@H]3C(F)F)nc1-2)C(N)=O` [GDC-0077, (S)-2-((2-((S)-4-(difluoromethyl)-2-oxooxazolidin-3-yl)-5,6-dihydrobenzo[f]imidazo[1,2-d][1,4]oxazepin-9-yl)amino)propanamide] here?
Its value is “inhibits proliferation and induces apoptosis”.

What about the “potency in mutant PI3K tumor cells over wild type (WT) PI3K cells” value [4] of the same compound?
Its value is “increased potency in tumor cells bearing mutant PI3K over wild type (WT) PI3K cells”.

And the “less potent biochemical inhibition for other Class I PI3K beta, delta, and gamma isoforms (versus PI3K alpha)” value [5]?
Its value is > 300 fold.

And the “downstream PI3K-pathway markers, including pAKT, pPRAS40, and pS6” value (pAKT, pPRAS40, and pS6)?
The value was “reduces downstream PI3K-pathway markers”.

What about the “tumor growth in human breast xenograft models harboring PIK3CA mutations” value [6] of the same compound?
The value was “inhibits tumor growth”.
